Assay results reported in patent US20230407298A1, “METHODS FOR INHIBITING CHMP7 EXPRESSION IN NEURONAL CELLS FOR THE TREATMENT OF NEURODEGENERATIVE DISORDERS” (THE JOHNS HOPKINS UNIVERSITY, priority 2020, published 2023).
Like-named read-outs stand apart in the source and are kept apart here.

Assays:
[1] = test system: POM121, Nup133, Nup50, FG Nups; assay: SIM imaging of nucleoporins in nuclei isolated from CHMP7 ASO treated iPSNs; type: cell-based, human; conditions: 5 μM, 2-week exposure
Method: C9orf72 repeat ASO: Sense strand targeting G4C2 ASO (619251) (13) was generously provided by Ionis Pharmaceuticals. On day 20 of differentiation, 5 μM sense targeting ASO was added to the culture media. Media was exchanged and ASO replaced on day 22 of differentiation and downstream analyses were performed on day 25 of differentiation. CHMP7 ASO: Non-targeting scrambled control (676630): […] (SEQ ID NO: 2), CHMP7 ASO 1 (1508916): […] (SEQ ID NO: 3), CHMP7 ASO 2 (1508917): […] (SEQ ID NO: 4), and CHMP7 ASO 3 (1508918): […] (SEQ ID NO:14) were generously provided by Ionis Pharmaceuticals. On day 25 of differentiation, ASOs were added to the culture media at concentrations of 1, 5, or 10 μM as indicated in Description of the Figures. Media was exchanged and ASO replaced every 3 days until day 40 of differentiation.
Nuclei were isolated from iPSNs and postmortem human brain and spinal cord tissue using the Nuclei Pure Prep Nuclei Isolation Kit (Sigma Aldrich) following manufacturer protocol as previously described (13). Briefly, iPSN lysates were prepared by rinsing iPSNs with 1×PBS, adding […] supplied lysis buffer supplemented with DTT and Triton X-100 directly to each well, and harvesting iPSNs with a cell scraper. Postmortem brain and spinal cord lysates were prepared by homogenizing 150 mg fresh frozen tissue directly in supplied lysis buffer with a dounce homogenizer. All lysates were transferred to a 50 mL conical tube and vortexed. Sucrose gradients were assembled following manufacturer protocol. A 1.85 M sucrose gradient was used to enrich for neuronal nuclei. Samples were centrifuged at 15,600 rpm and 4° C. using a Swi32T swinging bucket rotor and Beckman ultracentrifuge (Beckman Coulter) for 45 minutes. The supernatant was discarded, and the remaining nuclei pellet was resuspended in 1 mL of supplied nuclei storage buffer to wash the nuclei of any remaining sucrose. Resuspended nuclei were centrifuged at 2500 rpm and 4° C. for 5 minutes. The supernatant was once again discarded, and the resulting nuclei pellet was vortexed in 1 mL of supplied nuclei storage buffer to resuspend for downstream imaging analysis. For western blots, washed nuclei were lysed in RIPA buffer as described below.
Nuclei staining and super resolution imaging was performed as previously described (6). Following nuclei isolation, 10-50 μL of final nuclei/storage buffer suspension was centrifuged onto collagen coated (1 mg/mL; Advanced Biomatrix) slides with a CytoSpin 4 centrifuge (Thermo Fisher Scientific). Nuclei were immediately fixed with 4% PFA for 5 minutes, washed with 1×PBS 3×10 minutes and permeabilized with 1×PBST containing 0.1% Triton X-100 for 15 minutes. Nuclei were then blocked with 10% normal goat serum diluted in 1×PBS for 1 hour at room temperature and incubated in primary antibody diluted in block (10% normal goat serum in 1×PBS) overnight at 4° C. (See Table B for antibody information). After 16-18 hours, nuclei were washed with 1×PBS 3×10 minutes, incubated in secondary antibody diluted in block (10% normal goat serum in 1×PBS) for 1 hour at room temperature (See Table B for antibody information). Nuclei were washed with 1×PBS 3×10 minutes and cover slipped using Prolong Gold Antifade Reagent (Invitrogen) and 18 mm×18 mm 1.5 high tolerance coverslips (MatTek). NeuN or GFP positive nuclei (see Description of the Figures) were identified via microscope eye pieces. A single z section ˜110 nm thick was acquired by widefield imaging to confirm NeuN or GFP positivity. The immunostained Nup or ESCRT-III protein was subsequently imaged by super resolution structured illumination microscopy (SIM) using a Zeiss ELYRA 51. For each image, 5 grid rotations and optimal z sectioning parameters were employed. Following image acquisition, SIM images were reconstructed using default SIM processing parameters with Zeiss Zen Black 2.3 SP1 software. […]

iPSNs = assay: Glutamate toxicity, propidium iodide (PI) incorporation; type: cell-based, human
Method: On day 12 of differentiation, iPSNs were plated in 24 well optical bottom plates (Cellvis) at a density of 250,000 neurons per well. Neurons were rinsed with 1×PBS and fed with fresh stage 3 media daily remove dead cells and debris until day 25 of differentiation. On day 25 of differentiation, ASO treatment was initiated as described above. Every 3 days, iPSNs were rinsed 3× with 1×PBS and media and ASO were replaced. On day 40 of differentiation, iPSNs were washed with 1×PBS to remove any remaining debris and dead cells. Media was replaced with ACSF (Tocris) containing 0 or 10 μM glutamate (Sigma Aldrich). iPSNs were incubated at 37° C. with 5% CO2 for 4 hours. After 3.5 hours, one drop of NucBlue Live ReadyProbes (Thermo Fisher Scientific) and […] (Thermo Fisher Scientific) and returned to the incubator for 30 mins. iPSNs were imaged in an environmentally controlled chamber with a Zeiss LSM 800 confocal microscope. […] PI and DAPI spots were counted using FIJI.
On day 12 of differentiation, iPSNs were plated in 24 well optical bottom plates (Cellvis) at a density of 250,000 neurons per well. […] After 3.5 hours, one drop of NucBlue Live ReadyProbes (Thermo Fisher Scientific) and 1 μM propidium iodide (Thermo Fisher Scientific) and returned to the incubator for 30 minutes. iPSNs were imaged in an environmentally controlled chamber with a Zeiss LSM 800 confocal microscope. […]

stathmin-2 mRNA = assay: qRT-PCR for full length and truncated stathmin-2 mRNA; type: cell-based, human; conditions: C9orf72 and sALS iPSNs; day 46; 3 week exposure; GAPDH normalization
Method: (§1) Non-targeting scrambled control (676630): […] (SEQ ID NO:2), CHMP7 ASO 1 (1508916): […] (SEQ ID NO:3), CHMP7 ASO 2 (1508917): […] (SEQ ID NO:4), and CHMP7 ASO 3 (1508918): […] (SEQ ID NO:14) were generously provided by Ionis Pharmaceuticals. On day 25 of differentiation, ASOs were added to the culture media at concentrations of […] as indicated in Description of the Figures. Media was exchanged and ASO replaced every 3 days until iPSNs were subjected to downstream analyses on day 40 of differentiation for western blot, SIM, and glutamate excitotoxicity and day 46 of differentiation for stathmin-2 qRT-PCR, Ran GTPase localization, and TDP-43 localization.
RNA from iPSNs was isolated with a RNeasy kit (QIAGEN) according to manufacturer protocol. RNA concentrations were determined with a NanoDrop 1000 spectrophotometer (Thermo Fisher Scientific). For CHMP7 ASO experiments, RNA was isolated on day 46 of differentiation following 3 weeks exposure to 5 μM CHMP7 ASO2 or scrambled control ASO. For CHMP7 overexpression experiments, RNA was isolated on day 32 of differentiation (2 weeks after plasmid nucleofection). […]

TDP-43 = assay: Immunostaining and confocal imaging for TDP-43 in iPSNs; type: cell-based, human; conditions: sALS iPSNs; day 46; 3-week treatment
Method: as §1
On day 12 of differentiation, iPSNs were plated in 24 well optical bottom plates (Cellvis). […] Nuclear intensity and N/C ratios were calculated with FIJI as previously described (80). […]

XPO1 [2] = target: T1, XPO1 (Homo sapiens, UniProt O14980); assay: SIM of nuclei isolated from wildtype iPSNs following Leptomycin B treatment; type: cell-based; conditions: 10 nM, ~18 hours
Target sequence in this assay (O14980 whole entry): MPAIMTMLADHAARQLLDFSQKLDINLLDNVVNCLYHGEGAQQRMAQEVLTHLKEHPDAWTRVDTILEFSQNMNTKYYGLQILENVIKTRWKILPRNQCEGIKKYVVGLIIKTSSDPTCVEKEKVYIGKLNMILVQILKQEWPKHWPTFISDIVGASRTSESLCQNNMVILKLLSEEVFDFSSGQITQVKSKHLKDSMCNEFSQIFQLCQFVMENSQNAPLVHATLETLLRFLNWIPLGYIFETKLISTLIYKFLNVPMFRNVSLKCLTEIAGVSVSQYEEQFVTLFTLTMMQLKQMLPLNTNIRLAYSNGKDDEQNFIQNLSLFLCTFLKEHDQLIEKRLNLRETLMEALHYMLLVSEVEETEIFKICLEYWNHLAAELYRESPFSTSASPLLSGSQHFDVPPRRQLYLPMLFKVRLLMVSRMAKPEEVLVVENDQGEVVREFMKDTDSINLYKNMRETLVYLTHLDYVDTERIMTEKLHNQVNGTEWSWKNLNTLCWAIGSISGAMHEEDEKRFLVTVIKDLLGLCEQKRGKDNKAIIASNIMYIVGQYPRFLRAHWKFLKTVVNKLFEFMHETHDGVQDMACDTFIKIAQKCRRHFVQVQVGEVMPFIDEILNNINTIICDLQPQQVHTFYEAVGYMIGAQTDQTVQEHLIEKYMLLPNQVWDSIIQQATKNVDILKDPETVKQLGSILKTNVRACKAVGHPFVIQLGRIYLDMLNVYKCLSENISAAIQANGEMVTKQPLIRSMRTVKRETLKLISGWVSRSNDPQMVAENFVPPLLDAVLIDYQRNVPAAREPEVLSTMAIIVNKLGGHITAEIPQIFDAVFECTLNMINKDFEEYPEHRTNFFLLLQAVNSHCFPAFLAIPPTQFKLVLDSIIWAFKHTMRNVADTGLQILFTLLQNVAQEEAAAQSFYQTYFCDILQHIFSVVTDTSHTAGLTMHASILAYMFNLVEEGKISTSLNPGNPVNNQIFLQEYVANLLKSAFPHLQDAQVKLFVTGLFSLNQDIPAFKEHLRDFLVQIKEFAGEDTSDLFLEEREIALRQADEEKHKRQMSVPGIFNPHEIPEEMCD
Method: Leptomycin B and ASO Treatment of iPSC Derived Neurons Leptomycin B: On day 18 of differentiation, 10 nM Leptomycin B (LMB, Cayman Chemicals) was added to the culture media and iPSNs were returned to the incubator for ˜18 hours before downstream analyses were conducted. Ethanol was used as vehicle control. Nuclei were isolated from iPSNs and postmortem human brain and spinal cord tissue using the Nuclei Pure Prep Nuclei Isolation Kit (Sigma Aldrich) following manufacturer protocol as previously described (13). Briefly, iPSN lysates were prepared by rinsing iPSNs with 1×PBS, adding mL supplied lysis buffer supplemented with DTT and Triton X-100 directly to each well, and harvesting iPSNs with a cell scraper. […] All lysates were transferred to a 50 mL conical tube and vortexed. Sucrose gradients were assembled following manufacturer protocol. A 1.85 M sucrose gradient was used to enrich for neuronal nuclei. Samples were centrifuged at 15,600 rpm and 4° C. using a Swi32T swinging bucket rotor and Beckman ultracentrifuge (Beckman Coulter) for 45 minutes. The supernatant was discarded, and the remaining nuclei pellet was resuspended in 1 mL of supplied nuclei storage buffer to wash the nuclei of any remaining sucrose. Resuspended nuclei were centrifuged at 2500 rpm and 4° C. for 5 minutes. The supernatant was once again discarded, and the resulting nuclei pellet was vortexed in 1 mL of supplied nuclei storage buffer to resuspend for downstream imaging analysis. […] Nuclei staining and super resolution imaging was performed as previously described (6). Following nuclei isolation, 10-50 μL of final nuclei/storage buffer suspension was centrifuged onto collagen coated (1 mg/mL; Advanced Biomatrix) slides with a CytoSpin 4 centrifuge (Thermo Fisher Scientific). Nuclei were immediately fixed with 4% PFA for 5 minutes, washed with 1×PBS 3×10 minutes and permeabilized with 1×PBST containing 0.1% Triton X-100 for 15 minutes. Nuclei were then blocked with 10% normal goat serum diluted in 1×PBS for 1 hour at room temperature and incubated in primary antibody diluted in block (10% normal goat serum in 1×PBS) overnight at 4° C. […] After 16-18 hours, nuclei were washed with 1×PBS 3×10 minutes, incubated in secondary antibody diluted in block (10% normal goat serum in 1×PBS) for 1 hour at room temperature (See Table B for antibody information). Nuclei were washed with 1×PBS 3×10 minutes and cover slipped using Prolong Gold Antifade Reagent (Invitrogen) and 18 mm×18 mm 1.5 high tolerance coverslips (MatTek). NeuN or GFP positive nuclei (see Description of the Figures) were identified via microscope eye pieces. A single z section ˜110 nm thick was acquired by widefield imaging to confirm NeuN or GFP positivity. The immunostained Nup or ESCRT-III protein was subsequently imaged by super resolution structured illumination microscopy (SIM) using a Zeiss ELYRA 51. For each image, 5 grid rotations and optimal z sectioning parameters were employed. Following image acquisition, SIM images were reconstructed using default SIM processing parameters with Zeiss Zen Black 2.3 SP1 software. Automated nucleoporin spot and volume analysis was conducted as previously described (6, 26) using Imaris version 9.2.0 (Bitplane) and the 3D suite plugin in FIJI version 1.52p. Nucleoporin spots were counted using automated spot detection. […] The total number of nucleoporin spots was determined using a 3D-rendering of segmented SIM images comprising the entire depth of each nucleus.

XPO1 [3] = target: T1, XPO1; assay: Nuclear/cytoplasmic fractionation and western blot of iPSNs following Leptomycin B treatment; type: cell-based; conditions: iPSNs (FIGS. 12A-12C)
Target sequence in this assay (O14980 whole entry): as above
Method: Leptomycin B and ASO Treatment of iPSC Derived Neurons Leptomycin B: On day 18 of differentiation, 10 nM Leptomycin B (LMB, Cayman Chemicals) was added to the culture media and iPSNs were returned to the incubator for ˜18 hours before downstream analyses were conducted. Ethanol was used as vehicle control. iPSNs were rinsed in 1×PBS and nuclear/cytoplasmic fractionation was performed with the NE-PER Nuclear and Cytoplasmic Extraction Kit (Thermo Fisher Scientific) according to manufacturer protocol. Following the addition of C2 buffer, 25 μL of sample was added to 25 μL 2× Laemmli buffer (BioRad) and set aside as protein input. An additional 25 μL was set aside on ice as RNA input. From each nuclear and cytoplasmic fraction obtained, 25 μL sample was added to 25 μL 2× Laemmli buffer for protein analysis. An additional 25 μL was added to 500 μL RLT buffer (QIAGEN) for RNA analysis. The remainder of each fraction was stored at −80° C. At the completion of the fractionation, 500 μL RLT buffer was added to the RNA input sample. RNA isolation, cDNA synthesis, and qRT-PCR were performed as described below. Western blot analysis was conducted as described below. Equal volume of each sample (10 μL) was loaded in acrylamide gels. […] The supernatant was transferred to a new Eppendorf tube and protein concentrations were determined using the BCA protein estimation assay kit (Thermo Fisher Scientific). […]

XPO1 [4] = target: T1, XPO1; assay: Nuclear/cytoplasmic fractionation and qRT-PCR of C9orf72 iPSNs following Leptomycin B treatment; type: cell-based
Target sequence in this assay (O14980 whole entry): as above
Method: Ethanol was used as vehicle control. iPSNs were rinsed in 1×PBS and nuclear/cytoplasmic fractionation was performed with the NE-PER Nuclear and Cytoplasmic Extraction Kit (Thermo Fisher Scientific) according to manufacturer protocol. Following the addition of C2 buffer, 25 μL of sample was added to 25 μL 2× Laemmli buffer (BioRad) and set aside as protein input. An additional 25 μL was set aside on ice as RNA input. From each nuclear and cytoplasmic fraction obtained, 25 μL sample was added to 25 μL 2× Laemmli buffer for protein analysis. An additional 25 μL was added to 500 μL RLT buffer (QIAGEN) for RNA analysis. The remainder of each fraction was stored at −80° C. At the completion of the fractionation, 500 μL RLT buffer was added to the RNA input sample. RNA isolation, cDNA synthesis, and qRT-PCR were performed as described below. […] RNA from immunoprecipitated complexes or nuclear and cytoplasmic cellular fractions was isolated with a RNeasy kit (QIAGEN) according to manufacturer protocol. RNA concentrations were determined with a NanoDrop 1000 spectrophotometer (Thermo Fisher Scientific). […]

XPO1 [5] = target: T1, XPO1; conditions: non-neuronal cell lines (ref 24); cited from earlier work
Target sequence in this assay (O14980 whole entry, species assumed): as the sequence (O14980 whole entry) above

[6] = C9orf72 and sALS iPSNs, day 40, compared to scrambled control ASO
[7] = C9orf72 iPSNs, compared to scrambled control ASO

TGTTACCCTCAGATACCGCC (listed as DNA, chemistry not given here) [CHMP7 ASO 2, CHMP7 targeting ASO provided by Ionis Pharmaceuticals; targets human CHMP7 pre-mRNA, RNase H based degradation]
Nup50 expression in iPSN nuclei and NPCs [1, 6]: significantly restored
Nup133 expression in iPSN nuclei and NPCs [1, 6]: significantly restored
POM121 expression in iPSN nuclei and NPCs [1, 6]: significantly restored
Nup50 expression in iPSN nuclei and NPCs [1, 7]: significantly restored
Nup133 expression in iPSN nuclei and NPCs [1, 7]: significantly restored
POM121 expression in iPSN nuclei and NPCs [1, 7]: significantly restored
sensitivity to glutamate induced excitotoxicity as measured by propidium iodide (PI) incorporation (iPSNs; C9orf72 and sALS iPSNs, two week treatment (FIG. 20I)): significantly decreased
sensitivity to glutamate induced excitotoxicity as measured by propidium iodide (PI) incorporation (iPSNs; C9orf72 iPSNs, 2-week exposure to 5 μM ASO, 10 μM glutamate 4 hours (FIG. 4H)): mitigates
full length stathmin-2 mRNA levels (stathmin-2 mRNA): restored to levels observed in control iPSNs
truncated stathmin-2 mRNA levels (stathmin-2 mRNA): restored to levels observed in control iPSNs
nuclear TDP-43 localization (TDP-43): restored

CCC(=C/[C@H](C)C/C=C/C(C)=C/[C@@H](C)C(=O)[C@@H](C)[C@H](O)[C@@H](C)C/C(C)=C/C(=O)O)/C=C/[C@@H]1OC(=O)C=C[C@@H]1C [LMB, Leptomycin B]
CHMP7 in the nucleus (XPO1 [2]): significant increase
Nup50 immunoreactivity in nuclei (XPO1 [2]): reduction
Nup133 immunoreactivity in nuclei (XPO1 [2]): reduction
POM121 immunoreactivity in nuclei (XPO1 [2]): reduction
VPS4 immunoreactivity in nuclei (XPO1 [2]): increase
nuclear levels of DDX3X (XPO1 [3]): increases
nuclear levels of RanBP1 (XPO1 [3]): increases
presence of G4C2 repeat RNA in the nuclear fraction (XPO1 [4]; C9orf72 iPSNs (FIG. 12D)): strongly increases
presence of G2C4 repeat RNA in the nuclear fraction (XPO1 [4]; C9orf72 iPSNs (FIG. 12E)): strongly increases
nuclear levels of DDX3X (XPO1 [5]): increases
nuclear levels of RanBP1 (XPO1 [5]): increases
